By IC50 is commonly meant the midpoint of a concentration-inhibition curve.

Where only a bound is given, the exact number is not on record here.

This passage reports IC50 results from patent US11542233B2, “Compounds, compositions and methods of use” (Aquinnah Pharmaceuticals, Inc., priority 2016, dated 2023).

The first assay has as its system TDP-43 aggregation in PC12 cells stably expressing GFP-tagged mutant TDP-43 (TDP-43^Q33IK::eGFP). As to the kind of experiment: In vitro efficacy assay: inhibition of TDP-43 inclusions, concentration-response, fluorescence microscopy. In kind it is cell-based. Particulars: PC12 cells, 1 hour pre-treatment, 15 μM sodium arsenite for 23 hours, 10-point dose response curve. The protocol: Exemplary compounds of the invention were evaluated for efficacy in inhibiting TDP-43 inclusions using a concentration-response assay. Briefly, PC12 cells stably expressing a GFP-tagged mutant form of TDP-43 (TDP-43^Q33IK::eGFP) were pre-treated for 1 hour with exemplary compounds and stressed with 15 μM sodium arsenite for 23 hours to induce TDP-43 aggregation. The inhibitory effect on TDP-43 aggregation was measured using fluorescence microscopy. The ratio of cells with TDP-43 aggregates was calculated based on the total number of cells with detectable GFP expression. In the table, “A” indicates an IC50 of less than 100 nM, “B” indicates an IC50 range from 100 nM to 500 nM; “C” indicates an IC50 range from 500 nM to 2 μM; and “D” indicates an IC50 greater than 2 μM.
For `CCN(C(=O)c1cc2ccccc2[nH]1)[C@H]1CCC[C@@H](NCc2cccc(F)c2)C1` [Compound 106, N-ethyl-N-((1S,3R)-3-((3-fluorobenzyl)amino)cyclohexyl)-1H-indole-2-carboxamide], the IC50 was less than 0.1 µM.

`CCN(C(=O)c1cc2ccccc2[nH]1)[C@H]1CCC[C@@H](NCc2cccc(F)c2)C1` [Compound 122]: the IC50 is more than 2 µM.

The same assay, now with this note: Rattus norvegicus, PC-12, PC12 cells, 1 hour pre-treatment, 15 μM sodium arsenite for 23 hours, 10-point dose response curve.
On to `CCN(C(=O)c1cc2ccccc2[nH]1)[C@H]1CCC[C@@H](N[C@H](c2cncnc2)C(F)(F)F)C1` (single isomer, unassigned) [Compound 412], for which the IC50 lay in the range of 0.1 to 0.5 µM.

As to `CCN(C(=O)c1cc2ccccc2[nH]1)[C@H]1CCC[C@@H](N[C@@H](c2cncnc2)C(F)(F)F)C1` (single isomer, unassigned) [Compound 413], the IC50 was 0.5 to 2 µM.

As for `CCN(C(=O)c1cc2ncccc2[nH]1)[C@H]1CCC[C@@H](N[C@H](c2ccccc2)C(F)(F)F)C1` (single isomer, unassigned) [Compound 416], the IC50 fell in the range of 0.5 to 2 µM.

For `CCN(C(=O)c1cc2ncccc2[nH]1)[C@H]1CCC[C@@H](N[C@@H](c2ccccc2)C(F)(F)F)C1` (single isomer, unassigned) [Compound 417], the IC50 fell in the range of 0.1 to 0.5 µM.

Turning to `CCN(C(=O)c1cc2ccccc2[nH]1)[C@H]1CCC[C@@H](NCc2ccccc2)C1` [Compound 100, N-((1S,3R)-3-(benzylamino)cyclohexyl)-N-ethyl-1H-indole-2-carboxamide], the 50% inhibitory concentration (IC50) is less than 0.1 µM.

Consider `CCN(C(=O)c1cc2ccccc2[nH]1)C1CCC[C@@H](NCc2ccccc2)C1` (some centres unmarked) [Compound 101], for which the IC50 was less than 0.1 µM.

Take `CCN(C(=O)c1cc2ccccc2[nH]1)[C@H]1CCC[C@H](NCc2ccccc2)C1` [Compound 102]: the IC50 fell in the range of 0.5 to 2 µM.

For the molecule `CCN(C(=O)c1cc2ccccc2[nH]1)[C@@H]1CCC[C@H](NCc2ccccc2)C1` [Compound 103], the half-maximal inhibitory concentration (IC50) fell in the range of 0.5 to 2 µM.

With `CCN(C(=O)c1cc2ccccc2[nH]1)[C@@H]1CCC[C@@H](NCc2ccccc2)C1` [Compound 104], the IC50 lay within 0.5 to 2 µM.

For `CCN(C(=O)c1cc2ccccc2[nH]1)[C@H]1CCC[C@@H](N(C)Cc2ccccc2)C1` [Compound 105, N-((1S,3R)-3-(benzyl(methyl)amino)cyclohexyl)-N-ethyl-1H-indole-2-carboxamide], the IC50 was 0.1 to 0.5 µM.

In the case of `CCN(C(=O)c1cc2ccccc2[nH]1)[C@H]1CCC[C@H](NCc2cccc(F)c2)C1` [Compound 107, N-ethyl-N-((1S,3S)-3-((3-fluorobenzyl)amino)cyclohexyl)-1H-indole-2-carboxamide], the IC50 was in the range of 0.5 to 2 µM.

Take `CCN(C(=O)c1cc2ccccc2[nH]1)[C@H]1CCC[C@@H](NCc2cccnc2)C1` [Compound 108]: the IC50 was in the range of 0.1 to 0.5 µM.

As to `CCN(C(=O)c1cc2ccccc2[nH]1)[C@H]1CCC[C@H](NCc2cccnc2)C1` [Compound 109], the IC50 fell in the range of 0.5 to 2 µM.

Take `CCN(C(=O)c1cc2ccccc2[nH]1)C1CCC[C@H](NCc2ccc(F)cc2)C1` (some centres unmarked) [Compound 110]: the IC50 lay in the range of 0.1 to 0.5 µM.

Turning to `CCN(C(=O)c1cc2ccccc2[nH]1)C1CCC[C@@H](NCc2ccc(F)cc2)C1` (some centres unmarked) [Compound 111], the IC50 was less than 0.1 µM.

With `CCN(C(=O)c1cc2ccccc2[nH]1)C1CCCC(NC2CCc3ccccc32)C1` (centres unmarked) [Compound 112], the IC50 was less than 0.1 µM.

Regarding `CCN(C(=O)c1cc2ccccc2[nH]1)[C@@H]1CCC[C@@H](N[C@H]2CCc3ccccc32)C1` [Compound 113], the IC50 lay within 0.5 to 2 µM.

As to `CCN(C(=O)c1cc2ccccc2[nH]1)[C@@H]1CCC[C@@H](N[C@@H]2CCc3ccccc32)C1` [Compound 114], the IC50 is more than 2 µM.

On to `CCN(C(=O)c1cc2ccccc2[nH]1)[C@H]1CCC[C@@H](N2CCc3ccccc3C2)C1` [Compound 115], for which the IC50 is 0.5 to 2 µM.

Consider `CCN(C(=O)c1cc2ccccc2[nH]1)[C@H]1CCC[C@H](N2CCc3ccccc3C2)C1` [Compound 116], for which the IC50 lay within 0.5 to 2 µM.

Take `CCN(C(=O)c1cc2ccccc2[nH]1)[C@H]1CCC[C@@H](NCCC2CC2)C1` [Compound 117]: the 50% inhibitory concentration (IC50) is less than 0.1 µM.

For the molecule `CCN(C(=O)c1cc2ccccc2[nH]1)[C@H]1CCC[C@@H](NCC2CCOCC2)C1` [Compound 118], the 50% inhibitory concentration (IC50) was 0.1 to 0.5 µM.

As to `CCN(C(=O)c1cc2ccccc2[nH]1)[C@H]1CCC[C@H](NCC2CCOCC2)C1` [Compound 119], the half-inhibitory concentration (IC50) is less than 0.1 µM.

Take `CCN(C(=O)c1cc2ccccc2[nH]1)[C@H]1CCC[C@@H](N[C@H]2CCc3ccccc32)C1` [Compound 120]: the IC50 is 0.5 to 2 µM.

For `CCN(C(=O)c1cc2ccccc2[nH]1)[C@H]1CCC[C@@H](N[C@@H]2CCc3ccccc32)C1` [Compound 121], the IC50 is more than 2 µM.

Turning to `CCN(C(=O)c1cc2ccccc2[nH]1)[C@H]1CCC[C@@H](NCc2ccc(F)cc2)C1` [Compound 123, N-ethyl-N-((1S,3R)-3-((4-fluorobenzyl)amino)cyclohexyl)-1H-indole-2-carboxamide], the IC50 is less than 0.1 µM.

Regarding `CCN(C(=O)c1cc2ccccc2[nH]1)[C@H]1CCC[C@@H](N[C@H]2CCc3cc(F)ccc32)C1` [Compound 124], the IC50 is less than 0.1 µM.

With `CCN(C(=O)c1cc2ccccc2[nH]1)[C@H]1CCC[C@@H](N[C@@H]2CCc3cc(F)ccc32)C1` [Compound 125], the IC50 was in the range of 0.1 to 0.5 µM.

For the molecule `CCN(C(=O)c1cc2ccccc2[nH]1)[C@H]1CCC[C@@H](NCc2ccncc2)C1` [Compound 126], the IC50 lay within 0.1 to 0.5 µM.

Consider `CCN(C(=O)c1cc2ccccc2[nH]1)[C@H]1CCC[C@@H](NCc2ccccn2)C1` [Compound 127], for which the IC50 was less than 0.1 µM.

For the molecule `CCN(C(=O)c1cc2ccccc2[nH]1)[C@H]1CCC[C@@H](NCc2ccc(OC)cc2)C1` [Compound 128], the IC50 is less than 0.1 µM.

As to `CCN(C(=O)c1cc2c(OC)cccc2[nH]1)[C@H]1CCC[C@@H](NCc2ccccc2)C1` [Compound 129], the IC50 is less than 0.1 µM.

In the case of `CCN(C(=O)c1cc2ccccc2[nH]1)[C@H]1CCC[C@@H](NCc2cncnc2)C1` [Compound 130], the IC50 lay within 0.5 to 2 µM.

As for `CCN(C(=O)c1cc2ccccc2[nH]1)[C@H]1CCC[C@@H](NCc2cnc(C)nc2)C1` [Compound 131], the IC50 lay in the range of 0.1 to 0.5 µM.

For `CCN(C(=O)c1cc2ccccc2[nH]1)[C@H]1CCC[C@@H](NCc2cnc(OC)nc2)C1` [Compound 132], the IC50 is less than 0.1 µM.

`CCN(C(=O)c1cc2ccccc2[nH]1)[C@H]1CCC[C@@H](NCc2cnc(Cl)nc2)C1` [Compound 133]: the IC50 is 0.1 to 0.5 µM.

On to `CCN(C(=O)c1cc2ccccc2[nH]1)[C@H]1CCC[C@@H](NCc2cccc(Cl)c2)C1` [Compound 134], for which the IC50 was less than 0.1 µM.

As to `CCN(C(=O)c1cc2ccccc2[nH]1)[C@H]1CCC[C@@H](NCc2ccc(Cl)cc2)C1` [Compound 135], the IC50 is less than 0.1 µM.

As for `CCN(C(=O)c1cc2ccccc2[nH]1)[C@H]1CCC[C@@H](NCc2ncccn2)C1` [Compound 136], the IC50 was 0.1 to 0.5 µM.

Regarding `CCN(C(=O)c1cc2ccccc2[nH]1)[C@H]1CCC[C@@H](NCc2ccncn2)C1` [Compound 137], the IC50 fell in the range of 0.1 to 0.5 µM.

Take `CCN(C(=O)c1cc2ncccc2[nH]1)[C@H]1CCC[C@@H](NCc2cccc(F)c2)C1` [Compound 150, N-ethyl-N-((1S,3R)-3-((3-fluorobenzyl)amino)cyclohexyl)-1H-pyrrolo[3,2-b]pyridine-2-carboxamide]: the IC50 was less than 0.1 µM.

`CCN(C(=O)c1cc2ncccc2[nH]1)[C@H]1CCC[C@@H](NCc2ccccc2)C1` [Compound 151]: the IC50 was less than 0.1 µM.

For `CCN(C(=O)c1cc2ncccc2[nH]1)[C@H]1CCC[C@@H](NCc2ccc(F)cc2)C1` [Compound 152], the concentration for half-maximal inhibition (IC50) was less than 0.1 µM.

Regarding `O=C(c1cc2ccccc2[nH]1)N(CC(F)(F)F)[C@H]1CCC[C@@H](NCc2cccc(F)c2)C1` [Compound 170, N-((1S,3R)-3-((3-fluorobenzyl)amino)cyclohexyl)-N-(2,2,2-trifluoroethyl)-1H-indole-2-carboxamide], the IC50 is less than 0.1 µM.

Regarding `O=C(c1cc2ccccc2[nH]1)N(CC(F)(F)F)[C@H]1CCC[C@@H](NCc2ccc(F)cc2)C1` [Compound 171], the IC50 is less than 0.1 µM.

As for `O=C(c1cc2ccccc2[nH]1)N(CC(F)(F)F)[C@H]1CCC[C@H](NCc2cccc(F)c2)C1` [Compound 172, N-((1S,3S)-3-((3-fluorobenzyl)amino)cyclohexyl)-N-(2,2,2-trifluoroethyl)-1H-indole-2-carboxamide], the IC50 lay within 0.5 to 2 µM.

As for `O=C(c1cc2ccccc2[nH]1)N(CC(F)(F)F)C1CCC[C@H](NCc2cccnc2)C1` (some centres unmarked) [Compound 174], the IC50 is more than 2 µM.

In the case of `O=C(c1cc2ccccc2[nH]1)N(CC(F)(F)F)[C@H]1CCC[C@@H](NCc2cccnc2)C1` [Compound 175], the IC50 is less than 0.1 µM.

Regarding `O=C(c1cc2ccccc2[nH]1)N(CC(F)(F)F)[C@H]1CCC[C@H](NCc2ccncc2)C1` [Compound 176], the half-inhibitory concentration (IC50) was more than 2 µM.

With `O=C(c1cc2ccccc2[nH]1)N(CC(F)(F)F)[C@H]1CCC[C@@H](NCc2ccncc2)C1` [Compound 177], the IC50 was in the range of 0.1 to 0.5 µM.

As to `O=C(c1cc2ccccc2[nH]1)N(CC(F)(F)F)[C@H]1CCC[C@H](NCc2ccccc2)C1` [Compound 178], the IC50 is 0.5 to 2 µM.

As to `O=C(c1cc2ccccc2[nH]1)N(CC(F)(F)F)[C@H]1CCC[C@@H](NCc2ccccc2)C1` [Compound 179], the IC50 is less than 0.1 µM.

Regarding `O=C(c1cc2ccccc2[nH]1)N(CC(F)(F)F)[C@H]1CCC[C@H](NCc2ccc(F)cc2)C1` [Compound 180], the IC50 lay within 0.5 to 2 µM.

Turning to `O=C(c1cc2ccccc2[nH]1)N(CC(F)(F)F)[C@H]1CCC[C@H](NCC2CCOCC2)C1` [Compound 182], the IC50 lay within 0.5 to 2 µM.
